From patent US8546565B2, “Quinazolinamide derivatives” (Merck Patent Gesellschaft, priority 2008, dated 2013)

Target: T1, Recombinant human HSP90a (Homo sapiens, UniProt P07900)
T1 construct: host or cells: E. coli
Assay: HSP90 radioligand filter binding test ([3H]17AAG competition)
Settings: [3H]17AAG 0.08 μM, HSP90 1.5 μg/assay, 22° C., 30 min; read-out: IC50 (HSP90 inhibition)
Description: Test Method for the Measurement of HSP90 Inhibitors
The binding of geldanamycin or 17-allylamino-17-demethoxygeldanamycin (17AAG) to HSP90 and competitive inhibition thereof can be utilised in order to determine the inhibitory activity of the compounds according to the invention (Carreras et al. 2003, Chiosis et al. 2002).
In the specific case, a radioligand filter binding test is used. The radioligand used here is tritium-labelled 17-allylaminogeldanamycin, [3H]17AAG. This filter binding test allows a targeted search for inhibitors which interfere with the ATP binding site.
Recombinant human HSP90a (E. coli expressed, 95% purity);
[3H]17AAG (17-allylaminogeldanamycin, [allylamino-2,3-^3H. Specific activity: 1.11×10^12 Bq/mmol (Moravek, MT-1717);
HEPES filter buffer (50 mM HEPES, pH 7.0, 5 mM MgCl2, BSA 0.01%)
Multiscreen FB (1 μm) filter plate (Millipore, MAFBNOB 50).
The 96-well microtitre filter plates are firstly irrigated and coated with 0.1% of polyethylenimine.
The test is carried out under the following conditions:
Reaction temperature 22° C.
Reaction time: 30 min., shaking at 800 rpm
50 mM HEPES HCl, pH 7.0, 5 mM MgCl2, 0.01% (w/v) of BSA
At the end of the reaction, the supernatant in the filter plate is removed by suction with the aid of a vacuum manifold (Multiscreen Separation System, Millipore), and the filter is washed twice.
The filter plates are then measured in a beta counter (Microbeta, Wallac) with scintillator (Microscint 20, Packard).
“% of control” is determined from the “counts per minutes” values, and the IC-50 value of a compound is calculated therefrom.

| Compound | IC50 [µM] |
| --- | --- |
| COc1cc(C(=O)NC(C)(C)C)c(-c2ccc3nc(N)nc(C(=O)N4Cc5ccccc5C4)c3c2)cc1OC [Compound A85, 2-[2-Amino-4-(1,3-dihydroisoindole-2-carbonyl)quinazolin-6-yl]-N-tert-butyl-4,5-dimethoxybenzamide] | > 10 |
| CN(C(=O)c1ccccc1-c1ccc2nc(N)nc(C(=O)N3Cc4ccccc4C3)c2c1)C(C)(C)C [Compound A56, 2-[2-Amino-4-(1,3-dihydroisoindole-2-carbonyl)quinazolin-6-yl]-N-tert-butyl-N-methylbenzamide] | 0.01 to 1 |
| CCN(CCO)S(=O)(=O)c1ccc(F)cc1-c1ccc2nc(N)nc(C(=O)N3Cc4ccccc4C3)c2c1 [Compound A82] | 0.01 to 1 |
| Nc1nc(C(=O)N2Cc3ccccc3C2)c2cc(-c3ccccc3C(=O)N3CCC(CO)C3)ccc2n1 (stereo not shown) [Compound A35] | 0.01 to 1 |
| CCNC(=O)c1cc(F)c(F)cc1-c1ccc2nc(N)nc(C(=O)N3Cc4ccccc4C3)c2c1 [Compound A74, 2-[2-Amino-4-(1,3-dihydroisoindole-2-carbonyl)quinazolin-6-yl]-N-ethyl-4,5-difluorobenzamide] | 0.01 to 1 |
| CCN(CC)C(=O)c1ccc(Cl)cc1-c1ccc2nc(N)nc(C(=O)N3Cc4ccccc4C3)c2c1 [Compound A87, 2-[2-Amino-4-(1,3-dihydroisoindole-2-carbonyl)quinazolin-6-yl]-4-chloro-N,N-diethylbenzamide] | 0.01 to 1 |
| CN(C)S(=O)(=O)c1ccccc1-c1ccc2nc(N)nc(C(=O)N3Cc4ccccc4C3)c2c1 [Compound A4] | 0.01 to 1 |
| CNCCN(C)S(=O)(=O)c1ccccc1-c1ccc2nc(N)nc(C(=O)N3Cc4ccccc4C3)c2c1 [Compound A13, 2-[2-Amino-4-(1,3-dihydroisoindole-2-carbonyl)quinazolin-6-yl]-N-methyl-N-(2-methylaminoethyl)benzenesulfonamide] | 0.01 to 1 |
| Nc1nc(C(=O)N2Cc3ccccc3C2)c2cc(-c3ccccc3C(=O)N3CCC(O)CC3)ccc2n1 [Compound A23] | 0.01 to 1 |
| CN(C)CCNS(=O)(=O)c1ccccc1-c1ccc2nc(N)nc(C(=O)N3Cc4ccccc4C3)c2c1 [Compound A3] | 0.01 to 1 |
| Nc1nc(C(=O)N2Cc3ccccc3C2)c2cc(-c3ccccc3S(=O)(=O)NC3CNC3)ccc2n1 [Compound A26, 2-[2-amino-4-(1,3-dihydroisoindole-2-carbonyl)quinazolin-6-yl]-N-azetidin-3-ylbenzenesulfonamide] | 0.01 to 1 |
| Nc1nc(C(=O)N2Cc3ccccc3C2)c2cc(-c3ccccc3C(=O)N3CC[C@H](F)C3)ccc2n1 [Compound A62] | 0.01 to 1 |
| C[C@@H]1CCCN1S(=O)(=O)c1ccccc1-c1ccc2nc(N)nc(C(=O)N3Cc4ccccc4C3)c2c1 [Compound A66, {2-Amino-6-[2-((R)-2-methylpyrrolidine-1-sulfonyl)phenyl]quinazolin-4-yl}-(1,3-dihydroisoindol-2-yl)methanone] | 0.01 to 1 |
| CC(C)(C)NS(=O)(=O)c1ccccc1-c1ccc2nc(N)nc(C(=O)N3Cc4ccccc4C3)c2c1 [Compound A1, 2-[2-Amino-4-(1,3-dihydroisoindole-2-carbonyl)quinazolin-6-yl]-N-tert-butylbenzenesulfonamide] | 0.01 to 1 |
| CCN(CC)C(=O)c1ccccc1-c1ccc2nc(N)nc(C(=O)N3Cc4ccccc4C3)c2c1 [Compound A40, 2-[2-Amino-4-(1,3-dihydroisoindole-2-carbonyl)quinazolin-6-yl]-N,N-diethylbenzamide] | 0.01 to 1 |
| CNS(=O)(=O)c1ccccc1-c1ccc2nc(N)nc(C(=O)N3Cc4ccccc4C3)c2c1 [Compound A6, 2-[2-Amino-4-(1,3-dihydroisoindole-2-carbonyl)quinazolin-6-yl]-N-methylbenzenesulfonamide] | 0.01 to 1 |
| CN(CCO)C(=O)c1ccccc1-c1ccc2nc(N)nc(C(=O)N3Cc4ccccc4C3)c2c1 [Compound A22] | 0.01 to 1 |

The remaining lines, values ahead:

| IC50 [µM] | Compound |
| --- | --- |
| 0.01 to 1 | Nc1nc(C(=O)N2Cc3ccccc3C2)c2cc(-c3ccccc3S(=O)(=O)N3CCC(CO)C3)ccc2n1 (stereo not shown) [Compound A21, {2-Amino-6-[2-(3-hydroxymethylpyrrolidine-1-sulfonyl)phenyl]quinazolin-4-yl}-(1,3-dihydroisoindol-2-yl)methanone] |
| 0.01 to 1 | CCNC(=O)c1cc(F)ccc1-c1ccc2nc(N)nc(C(=O)N3Cc4ccccc4C3)c2c1 [Compound A83, 2-[2-Amino-4-(1,3-dihydroisoindole-2-carbonyl)quinazolin-6-yl]-N-ethyl-5-fluorobenzamide] |
| 0.01 to 1 | CN(CCOC(=O)CN)S(=O)(=O)c1ccccc1-c1ccc2nc(N)nc(C(=O)N3Cc4ccccc4C3)c2c1 [Compound A15, 2-({2-[2-amino-4-(1,3-dihydroisoindole-2-carbonyl)quinazolin-6-yl]benzenesulfonyl}methylamino)ethyl aminoacetate] |
| 0.01 to 1 | CCNS(=O)(=O)c1ccccc1-c1ccc2nc(N)nc(C(=O)N3Cc4ccccc4C3)c2c1 [Compound A5, 2-[2-Amino-4-(1,3-dihydroisoindole-2-carbonyl)quinazolin-6-yl]-N-ethylbenzenesulfonamide] |
| 0.01 to 1 | Nc1nc(C(=O)N2Cc3ccccc3C2)c2cc(-c3ccccc3S(=O)(=O)N3CCC(O)C3)ccc2n1 (stereo not shown) [Compound A31] |
| 0.01 to 1 | Nc1nc(C(=O)N2Cc3ccccc3C2)c2cc(-c3ccccc3S(=O)(=O)NC3CC3)ccc2n1 [Compound A52, 2-[2-Amino-4-(1,3-dihydroisoindole-2-carbonyl)quinazolin-6-yl]-N-cyclopropylbenzenesulfonamide] |
| 0.01 to 1 | CCN(CCN(C)C)C(=O)c1cc(F)c(F)cc1-c1ccc2nc(N)nc(C(=O)N3Cc4ccccc4C3)c2c1 [Compound A76, 2-[2-Amino-4-(1,3-dihydroisoindole-2-carbonyl)quinazolin-6-yl]-N-(2-dimethylaminoethyl)-N-ethyl-4,5-difluorobenzamide] |
| 0.01 to 1 | Nc1nc(C(=O)N2Cc3ccccc3C2)c2cc(-c3ccccc3S(=O)(=O)N3CCC(N)C3)ccc2n1 (stereo not shown) [Compound A33, {2-amino-6-[2-(3-aminopyrrolidine-1-sulfonyl)phenyl]quinazolin-4-yl}-(1,3-dihydroisoindol-2-yl)methanone] |
| 0.01 to 1 | CCN(CC)C(=O)c1ccc(F)cc1-c1ccc2nc(N)nc(C(=O)N3Cc4ccccc4C3)c2c1 [Compound A70] |
| 0.01 to 1 | Cc1nccn1S(=O)(=O)c1ccccc1-c1ccc2nc(N)nc(C(=O)N3Cc4ccccc4C3)c2c1 [Compound A28, {2-Amino-6-[2-(2-methylimidazole-1-sulfonyl)phenyl]quinazolin-4-yl}-(1,3-dihydroisoindol-2-yl)methanone] |
| 0.01 to 1 | COC(=O)C1CCCN1C(=O)c1ccccc1-c1ccc2nc(N)nc(C(=O)N3Cc4ccccc4C3)c2c1 (stereo not shown) [Compound A37, Methyl 1-{2-[2-amino-4-(1,3-dihydroisoindole-2-carbonyl)quinazolin-6-yl]benzoyl}pyrrolidine-2-carboxylate] |
| 0.01 to 1 | CC1CCCN1C(=O)c1ccccc1-c1ccc2nc(N)nc(C(=O)N3Cc4ccccc4C3)c2c1 (stereo not shown) [Compound A42, {2-Amino-6-[2-(2-methylpyrrolidine-1-carbonyl)phenyl]quinazolin-4-yl}-(1,3-dihydroisoindol-2-yl)methanone] |
| 0.01 to 1 | CC1CCCN1C(=O)c1cc(F)c(F)cc1-c1ccc2nc(N)nc(C(=O)N3Cc4ccccc4C3)c2c1 (stereo not shown) [Compound A79, {2-Amino-6-[4,5-difluoro-2-(2-methylpyrrolidine-1-carbonyl)phenyl]quinazolin-4-yl}-(1,3-dihydroisoindol-2-yl)methanone] |
| 0.01 to 1 | Nc1nc(C(=O)N2Cc3ccccc3C2)c2cc(-c3ccccc3S(=O)(=O)N3CC(N)C3)ccc2n1 [Compound A29, {2-amino-6-[2-(3-aminoazetidine-1-sulfonyl)phenyl]quinazolin-4-yl}-(1,3-dihydroisoindol-2-yl)methanone] |
| 0.01 to 1 | CCN(C)C(=O)c1ccccc1-c1ccc2nc(N)nc(C(=O)N3Cc4ccccc4C3)c2c1 [Compound A39] |
| 0.01 to 1 | CCN(CC)C(=O)c1cc(F)ccc1-c1ccc2nc(N)nc(C(=O)N3Cc4ccccc4C3)c2c1 [Compound A71, 2-[2-Amino-4-(1,3-dihydroisoindole-2-carbonyl)quinazolin-6-yl]-N,N-diethyl-5-fluorobenzamide] |
| 0.01 to 1 | Nc1nc(C(=O)N2Cc3ccccc3C2)c2cc(-c3ccccc3C(=O)N(CCO)CCO)ccc2n1 [Compound A73] |
| 0.01 to 1 | Nc1nc(C(=O)N2Cc3ccccc3C2)c2cc(-c3ccccc3C(=O)N3CCC3)ccc2n1 [Compound A54] |
| 0.01 to 1 | Nc1nc(C(=O)N2Cc3ccccc3C2)c2cc(-c3ccccc3S(=O)(=O)N3CCC(O)CC3)ccc2n1 [Compound A9] |
| 0.01 to 1 | NCC(=O)OC1CCN(S(=O)(=O)c2ccccc2-c2ccc3nc(N)nc(C(=O)N4Cc5ccccc5C4)c3c2)CC1 [Compound A10, 1-{2-[2-amino-4-(1,3-dihydroisoindole-2-carbonyl)quinazolin-6-yl]benzenesulfonyl}piperidin-4-yl aminoacetate] |
